Data reported in patent publication US20130116241A1, “NOVEL INHIBITOR COMPOUNDS OF PHOSPHODIESTERASE TYPE 10A” (AbbVie Inc., priority 2011, published 2013).
Counter-ions that a name gives are not always drawn.

biological target: human PDE10A (UniProt Q9Y233); experiment: Measurement of PDE activity (recombinant enzyme, HTRF cAMP kit); type: biochemical; conditions: Table 1, substrate 20 nM for PDE10, 60 minutes at 29 C
Method in brief: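 HTRF detection of cAMP left after hydrolysis, expressed as percent of uninhibited control to derive IC50. Reaction: serially diluted inhibitor mixed with recombinant enzyme, started with 20 nM cAMP, 60 min at 29 °C in Tris-HCl pH 7.5 buffer containing MgCl2 and BSA.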

Sequence of human PDE10A (Q9Y233 290-1055 limits assumed): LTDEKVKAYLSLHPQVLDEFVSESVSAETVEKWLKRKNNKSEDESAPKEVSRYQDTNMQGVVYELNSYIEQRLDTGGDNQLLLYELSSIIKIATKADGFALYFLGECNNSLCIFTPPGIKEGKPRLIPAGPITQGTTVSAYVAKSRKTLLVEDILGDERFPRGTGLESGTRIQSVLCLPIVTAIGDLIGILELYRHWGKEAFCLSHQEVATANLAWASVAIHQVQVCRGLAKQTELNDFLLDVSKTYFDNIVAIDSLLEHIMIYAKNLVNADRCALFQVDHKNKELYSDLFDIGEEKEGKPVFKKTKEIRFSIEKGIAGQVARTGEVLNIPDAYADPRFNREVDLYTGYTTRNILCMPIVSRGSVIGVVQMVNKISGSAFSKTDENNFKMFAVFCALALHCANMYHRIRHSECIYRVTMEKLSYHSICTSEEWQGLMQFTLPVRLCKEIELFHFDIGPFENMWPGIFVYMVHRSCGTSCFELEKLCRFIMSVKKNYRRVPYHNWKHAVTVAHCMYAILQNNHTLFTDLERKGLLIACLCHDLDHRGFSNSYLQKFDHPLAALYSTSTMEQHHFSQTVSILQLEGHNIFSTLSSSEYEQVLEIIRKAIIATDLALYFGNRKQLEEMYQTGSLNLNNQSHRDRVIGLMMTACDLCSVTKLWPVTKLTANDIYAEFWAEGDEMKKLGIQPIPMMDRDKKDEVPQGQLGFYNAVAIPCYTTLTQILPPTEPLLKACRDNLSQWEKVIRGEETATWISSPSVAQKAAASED

SMILES	IC50 [µM]
O=c1c2c(N3C4CCC3COC4)cccc2cnn1CCc1cn2ccccc2n1 [compound 338, 2-[2-(imidazo[1,2-a]pyridin-2-yl)ethyl]-8-(3-oxa-8-azabicyclo[3.2.1]oct-8-yl)phthalazin-1(2H)-one]	< 0.1
O=c1c2c(C3=CCNCC3)cccc2cnn1CCc1cn2ccccc2n1 [compound 375, hydrochloride]	< 0.1

same assay, conditions: Table 1, substrate 20 nM for PDE10, 60 minutes at 29 C, read-out: IC50

IC50 [µM]	SMILES
0.2 to 0.5	O=c1c2c(C#Cc3ccncc3)csc2cnn1CCc1ccc2ccccc2n1 [compound 320, hydrochloride]
0.1 to 0.2	Cc1cnc(CCn2ncc3scc(-c4ccncc4)c3c2=O)c(C)c1 [compound 321, 5-[2-(3,5-dimethylpyridin-2-yl)ethyl]-3-(pyridin-4-yl)thieno[2,3-d]pyridazin-4(5H)-one]
0.2 to 0.5	O=c1c2c(-c3ccncc3)csc2cnn1CCc1ccc2ccc(F)cc2n1 [compound 322, 5-[2-(7-fluoroquinolin-2-yl)ethyl]-3-(pyridin-4-yl)thieno[2,3-d]pyridazin-4(5H)-one]
< 0.1	Cc1cc2ccccc2nc1CCn1ccc2cccc(-c3ccncc3)c2c1=O [compound 327, 2-[2-(3-methylquinolin-2-yl)ethyl]-8-(pyridin-4-yl)isoquinolin-1(2H)-one]
0.2 to 0.5	O=c1c2c(-c3cc[nH]n3)cccc2cnn1CCc1cn2ccccc2n1 [compound 328, 2-[2-(imidazo[1,2-a]pyridin-2-yl)ethyl]-8-(1H-pyrazol-3-yl)phthalazin-1(2H)-one]
< 0.1	O=c1c2c(N3CCOCC3)cccc2cnn1CCc1ccc2ccccc2n1 [compound 329, hydrochloride]
0.2 to 0.5	O=c1c2c(N3CCCC4(CC3)CNCCO4)cccc2cnn1CCc1cn2ccccc2n1 (centres unmarked) [compound 330, dihydrochloride]
0.2 to 0.5	O=c1c2c(N3CCC[C@@H](O)C3)cccc2cnn1CCc1cn2ccccc2n1 [compound 332]
< 0.1	O=c1c2c(N3CCC[C@H](O)C3)cccc2cnn1CCc1cn2ccccc2n1 [compound 333]
0.1 to 0.2	O=c1c2c(N3CC4(COC4)C3)cccc2cnn1CCc1cn2ccccc2n1 [compound 334, 2-[2-(imidazo[1,2-a]pyridin-2-yl)ethyl]-8-(2-oxa-6-azaspiro[3.3]hept-6-yl)phthalazin-1(2H)-one]
< 0.1	O=c1c2c(C3CCOC3)cccc2cnn1CCc1cn2ccccc2n1 (centres unmarked) [compound 337, 2-[2-(imidazo[1,2-a]pyridin-2-yl)ethyl]-8-(tetrahydrofuran-3-yl)phthalazin-1(2H)-one]
< 0.1	O=c1c2c(N3CCC4(COC4)C3)cccc2cnn1CCc1cn2ccccc2n1 [compound 339, 2-[2-(imidazo[1,2-a]pyridin-2-yl)ethyl]-8-(2-oxa-6-azaspiro[3.4]oct-6-yl)phthalazin-1(2H)-one]
< 0.1	O=c1c2c(N3CCC(O)CC3)cccc2cnn1CCc1cn2ccccc2n1 [compound 341, 8-(4-hydroxypiperidin-1-yl)-2-[2-(imidazo[1,2-a]pyridin-2-yl)ethyl]phthalazin-1(2H)-one]
0.1 to 0.2	Cc1ncc(-c2cccc3cnn(CCc4cn5ccccc5n4)c(=O)c23)cn1 [compound 342, 2-[2-(imidazo[1,2-a]pyridin-2-yl)ethyl]-8-(2-methylpyrimidin-5-yl)phthalazin-1(2H)-one]
0.2 to 0.5	O=c1c2c(-c3cnc(C4CC4)nc3)cccc2cnn1CCc1cn2ccccc2n1 [compound 343, 8-(2-cyclopropylpyrimidin-5-yl)-2-[2-(imidazo[1,2-a]pyridin-2-yl)ethyl]phthalazin-1(2H)-one]
0.1 to 0.2	O=c1c2c(-c3ccnnc3)cccc2cnn1CCc1cn2ccccc2n1 [compound 344, 2-[2-(imidazo[1,2-a]pyridin-2-yl)ethyl]-8-(pyridazin-4-yl)phthalazin-1(2H)-one]
0.1 to 0.2	O=c1c2c(-c3cncc(F)c3)cccc2cnn1CCc1cn2ccccc2n1 [compound 345, hydrochloride]
0.1 to 0.2	COc1ncc(-c2cccc3cnn(CCc4cn5ccccc5n4)c(=O)c23)cn1 [compound 347, 2-[2-(imidazo[1,2-a]pyridin-2-yl)ethyl]-8-(2-methoxypyrimidin-5-yl)phthalazin-1(2H)-one]
0.1 to 0.2	O=c1c2c(-c3ccnc(C(F)(F)F)c3)cccc2cnn1CCc1cn2ccccc2n1 [compound 348, 2-[2-(imidazo[1,2-a]pyridin-2-yl)ethyl]-8-[2-(trifluoromethyl)pyridin-4-yl]phthalazin-1(2H)-one]
< 0.1	O=c1c2c(N3CC4CCC(C3)O4)cccc2cnn1CCc1cn2ccccc2n1 [compound 349, 2-[2-(imidazo[1,2-a]pyridin-2-yl)ethyl]-8-(8-oxa-3-azabicyclo[3.2.1]oct-3-yl)phthalazin-1(2H)-one]
< 0.1	O=c1c2c(C3CCNCC3)cccc2cnn1CCc1cn2ccccc2n1 [compound 354, hydrochloride]
< 0.1	O=c1c2c(C3CCOCC3)cccc2cnn1CCc1cn2ccccc2n1 [compound 355, 2-[2-(imidazo[1,2-a]pyridin-2-yl)ethyl]-8-(tetrahydro-2H-pyran-4-yl)phthalazin-1(2H)-one]
0.1 to 0.2	O=c1c2c(-c3ccco3)cccc2cnn1CCc1cn2ccccc2n1 [compound 358, hydrochloride]

IC50 [µM]	SMILES
< 0.1	Cn1cc(-c2cccc3cnn(CCc4cn5ccccc5n4)c(=O)c23)cn1 [compound 359, hydrochloride]
< 0.1	O=c1c2c(C3CCNCC3)cccc2cnn1CCc1cn2c(n1)CCCC2 [compound 365, hydrochloride]
< 0.1	NCC1CC(Cl)CN1c1cccc2cnn(CCc3cn4ccccc4n3)c(=O)c12 (centres unmarked) [compound 366, trifluoroacetate]
< 0.1	O=c1c2c(-c3ccncc3)cccc2c(-c2ccncc2)nn1CCc1cn2ccccc2n1 [compound 367, 2-[2-(imidazo[1,2-a]pyridin-2-yl)ethyl]-4,8-di(pyridin-4-yl)phthalazin-1(2H)-one]
< 0.1	O=c1c2c(-c3ccncc3)cccc2c(Br)nn1CCc1cn2ccccc2n1 [compound 370, 4-bromo-2-[2-(imidazo[1,2-a]pyridin-2-yl)ethyl]-8-(pyridin-4-yl)phthalazin-1(2H)-one]
0.2 to 0.5	O=c1c2c(N3CC4CCOC4C3)cccc2cnn1CCc1cn2ccccc2n1 (centres unmarked) [compound 374, hydrochloride]
< 0.1	O=c1c2c(N[C@H]3CCOC3)cccc2cnn1CCc1cn2ccccc2n1 [compound 376, 2-[2-(imidazo[1,2-a]pyridin-2-yl)ethyl]-8-[(3S)-tetrahydrofuran-3-ylamino]phthalazin-1(2H)-one]
< 0.1	O=c1c2c(N[C@@H]3CCOC3)cccc2cnn1CCc1cn2ccccc2n1 [compound 377, 2-[2-(imidazo[1,2-a]pyridin-2-yl)ethyl]-8-[(3R)-tetrahydrofuran-3-ylamino]phthalazin-1(2H)-one]
0.2 to 0.5	O=c1c2c(OCC3COC(CO)CO3)cccc2cnn1CCc1cn2ccccc2n1 (centres unmarked) [compound 378, 8-{[5-(hydroxymethyl)-1,4-dioxan-2-yl]methoxy}-2-[2-(imidazo[1,2-a]pyridin-2-yl)ethyl]phthalazin-1(2H)-one]
0.1 to 0.2	O=c1c2c(OCc3ccncc3)cccc2cnn1CCc1cn2ccccc2n1 [compound 380, 2-[2-(imidazo[1,2-a]pyridin-2-yl)ethyl]-8-(pyridin-4-ylmethoxy)phthalazin-1(2H)-one]
< 0.1	O=c1c2c(Oc3cccnc3)cccc2cnn1CCc1cn2ccccc2n1 [compound 382, 2-[2-(imidazo[1,2-a]pyridin-2-yl)ethyl]-8-(pyridin-3-yloxy)phthalazin-1(2H)-one]
< 0.1	O=c1c2c(NCC3COC3)cccc2cnn1CCc1cn2ccccc2n1 [compound 383, 2-[2-(imidazo[1,2-a]pyridin-2-yl)ethyl]-8-[(oxetan-3-ylmethyl)amino]phthalazin-1(2H)-one]
0.1 to 0.2	O=c1c2c(NC3CCOCC3)cccc2cnn1CCc1cn2ccccc2n1 [compound 384, 2-[2-(imidazo[1,2-a]pyridin-2-yl)ethyl]-8-(tetrahydro-2H-pyran-4-ylamino)phthalazin-1(2H)-one]
0.2 to 0.5	CN1CC(Nc2cccc3cnn(CCc4cn5ccccc5n4)c(=O)c23)C1 [compound 385, 2-[2-(imidazo[1,2-a]pyridin-2-yl)ethyl]-8-[(1-methylazetidin-3-yl)amino]phthalazin-1(2H)-one]
< 0.1	CN(c1cccc2cnn(CCc3cn4ccccc4n3)c(=O)c12)C1COC1 [compound 387, 2-[2-(imidazo[1,2-a]pyridin-2-yl)ethyl]-8-[methyl(oxetan-3-yl)amino]phthalazin-1(2H)-one]
< 0.1	O=c1c2c(NC3CCNCC3)cccc2cnn1CCc1cn2ccccc2n1 [compound 388, dihydrochloride]
0.1 to 0.2	CC(=O)N1CCCC(Nc2cccc3cnn(CCc4cn5ccccc5n4)c(=O)c23)C1 (centres unmarked) [compound 389, hydrochloride]
0.2 to 0.5	CC(=O)N1CCC(Nc2cccc3cnn(CCc4cn5ccccc5n4)c(=O)c23)CC1 [compound 390, 8-[(1-acetylpiperidin-4-yl)amino]-2-[2-(imidazo[1,2-a]pyridin-2-yl)ethyl]phthalazin-1(2H)-one]
< 0.1	O=c1c2c(NC3CCOC3)cccc2cnn1CCc1cn2ccccc2n1 (centres unmarked) [compound 391, 2-[2-(imidazo[1,2-a]pyridin-2-yl)ethyl]-8-(tetrahydrofuran-3-ylamino)phthalazin-1(2H)-one]
< 0.1	O=c1c2c(NC3CCCOC3)cccc2cnn1CCc1cn2ccccc2n1 (centres unmarked) [compound 392, hydrochloride]
< 0.1	O=c1c2c(NC3CCCNC3)cccc2cnn1CCc1cn2ccccc2n1 (centres unmarked) [compound 393, dihydrochloride]
0.2 to 0.5	CN(CC1(C)COC1)c1cccc2cnn(CCc3cn4ccccc4n3)c(=O)c12 [compound 394, 2-[2-(imidazo[1,2-a]pyridin-2-yl)ethyl]-8-{methyl[(3-methyloxetan-3-yl)methyl]amino}phthalazin-1(2H)-one]
